According to patent US20220119354A1, “DIAMINO-SUBSTITUTED PYRIDINES AND PYRIMIDINES AS HERBICIDES” (FMC Corporation, priority 2019, published 2022):

Columns and labels:
Type in all cases: in vivo
[1] = system: foxtail, giant (Setaria faberii); assay: Test A preemergence, giant foxtail; conditions: 0 to 100 scale, 0 is no effect, 100 is complete control
Outline: (§1)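 Visual injury scored against untreated controls about 10 d after treatment, scale 0 = no effect to 100 = complete control. Compounds, formulated with surfactant in a non-phytotoxic solvent, went on as directed soil spray preemergence or onto 2–10 cm, one- to two-leaf plants postemergence; loam–sand soil, greenhouse.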

[2] = system: pigweed (Amaranthus retroflexus); assay: Test A preemergence, pigweed; conditions: 0 to 100 scale, 0 is no effect, 100 is complete control
Outline: as §1

rice (Oryza sativa) = assay: Test B flooded paddy test, rice; conditions: Flood, 250 g ai/ha, applied to paddy water, 2-leaf stage, visual evaluation after 13 to 15 d
Outline: (§2)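 Pots flooded to 3 cm above the soil when treated, with test compound added straight to the water and the flood maintained. Treated plants were at the 2-leaf stage and stayed 13–15 d in greenhouse. Response versus untreated controls scored visually from 0 (no effect) to 100 (complete control).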

[3] = system: foxtail, giant (Setaria faberii); assay: Test A postemergence, giant foxtail; conditions: 0 to 100 scale, 0 no effect, 100 complete control
Outline: as §1

[4] = system: ryegrass, Italian (Lolium multiflorum); assay: Test A postemergence, Italian ryegrass; conditions: 0 to 100 scale, 0 no effect, 100 complete control
Outline: as §1

[5] = system: pigweed (Amaranthus retroflexus); assay: Test A postemergence, pigweed; conditions: 0 to 100 scale, 0 no effect, 100 complete control
Outline: as §1

[6] = system: ragweed (common ragweed, Ambrosia elatior); assay: Test A postemergence, ragweed; conditions: 0 to 100 scale, 0 no effect, 100 complete control
Outline: as §1

[7] = system: barnyardgrass (Echinochloa crus-galli); assay: Test A preemergence, barnyardgrass; conditions: 0 to 100 scale, 0 is no effect, 100 is complete control
Outline: as §1

[8] = system: galium (catchweed bedstraw, Galium aparine); assay: Test A postemergence, galium; conditions: 0 to 100 scale, 0 no effect, 100 complete control
Outline: as §1

[9] = system: wheat (Triticum aestivum); assay: Test A postemergence, wheat; conditions: 0 to 100 scale, 0 no effect, 100 complete control
Outline: as §1

kochia (Kochia scoparia) [10] = assay: Test A postemergence, kochia; conditions: 0 to 100 scale, 0 no effect, 100 complete control
Outline: as §1

[11] = system: ducksalad (Heteranthera limosa); assay: Test B flooded paddy test, ducksalad; conditions: Flood, 250 g ai/ha, applied to paddy water, 2-leaf stage, visual evaluation after 13 to 15 d
Outline: as §2

[12] = system: barnyardgrass (Echinochloa crus-galli); assay: Test B flooded paddy test, barnyardgrass; conditions: Flood, 250 g ai/ha, applied to paddy water, 2-leaf stage, visual evaluation after 13 to 15 d
Outline: as §2

kochia (Kochia scoparia) [13] = assay: Test A preemergence, kochia; conditions: 0 to 100 scale, 0 is no effect, 100 is complete control
Outline: as §1

[14] = system: sedge, umbrella (small-flower umbrella sedge, Cyperus difformis); assay: Test B flooded paddy test, umbrella sedge; conditions: Flood, 250 g ai/ha, applied to paddy water, 2-leaf stage, visual evaluation after 13 to 15 d
Outline: as §2

[15] = system: blackgrass (Alopecurus myosuroides); assay: Test A postemergence, blackgrass; conditions: 0 to 100 scale, 0 no effect, 100 complete control
Outline: as §1

corn (Zea mays) = assay: Test A postemergence, corn; conditions: 0 to 100 scale, 0 no effect, 100 complete control
Outline: as §1

[16] = system: ragweed (common ragweed, Ambrosia elatior); assay: Test A preemergence, ragweed; conditions: 0 to 100 scale, 0 is no effect, 100 is complete control
Outline: as §1

[17] = system: barnyardgrass (Echinochloa crus-galli); assay: Test A postemergence, barnyardgrass; conditions: 0 to 100 scale, 0 no effect, 100 complete control
Outline: as §1

[18] = system: ryegrass, Italian (Lolium multiflorum); assay: Test A preemergence, Italian ryegrass; conditions: 0 to 100 scale, 0 is no effect, 100 is complete control
Outline: as §1

Row | SMILES | Foxtail, Giant plant response rating ([1]; 125 g ai/ha) | Foxtail, Giant plant response rating ([1]; 500 g ai/ha) | Pigweed plant response rating ([2]; 125 g ai/ha) | Pigweed plant response rating ([2]; 500 g ai/ha) | Plant response rating, Rice (0 to 100 scale, 0 is no effect, 100 is complete control) (rice (Oryza sativa)) | Plant response rating, Foxtail, Giant ([3]; 125 g ai/ha) | Plant response rating, Foxtail, Giant ([3]; 500 g ai/ha) | Plant response rating, Ryegrass, Italian ([4]; 125 g ai/ha) | Plant response rating, Ryegrass, Italian ([4]; 500 g ai/ha) | Plant response rating, Pigweed ([5]; 125 g ai/ha) | Plant response rating, Pigweed ([5]; 500 g ai/ha) | Plant response rating, Ragweed ([6]; 125 g ai/ha) | Plant response rating, Ragweed ([6]; 500 g ai/ha) | Barnyardgrass plant response rating ([7]; 125 g ai/ha) | Barnyardgrass plant response rating ([7]; 500 g ai/ha) | Plant response rating, Galium ([8]; 125 g ai/ha) | Plant response rating, Galium ([8]; 500 g ai/ha) | Plant response rating, Wheat ([9]; 125 g ai/ha) | Plant response rating, Wheat ([9]; 500 g ai/ha) | Plant response rating, Kochia (kochia (Kochia scoparia) [10]; 125 g ai/ha) | other results
1 | C[C@H](Nc1ncc(C(F)(F)F)c(N)n1)c1coc2ccc(F)cc12 [Compound 56] | 0 | 0 | 0 | 30 | 0 | 10 | 20 | 0 | 0 | 20 | 60 | 0 | 30 | 70 | 70 | 0 | 0 | 0 | 0 | 0 | Plant response rating, Kochia (kochia (Kochia scoparia) [10]; 500 g ai/ha): 40; Plant response rating, Ducksalad (0 to 100 scale, 0 is no effect, 100 is complete control) [11]: 0; Plant response rating, Barnyardgrass (0 to 100 scale, 0 is no effect, 100 is complete control) [12]: 0; Kochia plant response rating (kochia (Kochia scoparia) [13]; 125 g ai/ha): 0; Kochia plant response rating (kochia (Kochia scoparia) [13]; 500 g ai/ha): 0; Plant response rating, Sedge, Umbrella (0 to 100 scale, 0 is no effect, 100 is complete control) [14]: 0; Plant response rating, Blackgrass ([15]; 125 g ai/ha): 0; Plant response rating, Blackgrass ([15]; 500 g ai/ha): 0; Plant response rating, Corn (corn (Zea mays); 125 g ai/ha): 0; Plant response rating, Corn (corn (Zea mays); 500 g ai/ha): 10; Ragweed plant response rating ([16]; 125 g ai/ha): 20; Ragweed plant response rating ([16]; 500 g ai/ha): 80; Plant response rating, Barnyardgrass ([17]; 125 g ai/ha): 50; Plant response rating, Barnyardgrass ([17]; 500 g ai/ha): 30; Ryegrass, Italian plant response rating ([18]; 125 g ai/ha): 0; Ryegrass, Italian plant response rating ([18]; 500 g ai/ha): 0
2 | CC(=O)c1cnc(NC(C)c2cc3ccccc3s2)nc1N (stereo not drawn) [Compound 57] | 30 | 90 | 30 | 100 | 0 | 0 | 50 | 0 | 60 | 60 | 80 | 40 | 70 | 0 | 70 | 60 | 80 | 0 | 20 | 0 | Plant response rating, Kochia (kochia (Kochia scoparia) [10]; 500 g ai/ha): 60; Plant response rating, Ducksalad (0 to 100 scale, 0 is no effect, 100 is complete control) [11]: 30; Plant response rating, Barnyardgrass (0 to 100 scale, 0 is no effect, 100 is complete control) [12]: 0; Kochia plant response rating (kochia (Kochia scoparia) [13]; 125 g ai/ha): 0; Kochia plant response rating (kochia (Kochia scoparia) [13]; 500 g ai/ha): 60; Plant response rating, Sedge, Umbrella (0 to 100 scale, 0 is no effect, 100 is complete control) [14]: 80; Plant response rating, Blackgrass ([15]; 125 g ai/ha): 0; Plant response rating, Blackgrass ([15]; 500 g ai/ha): 10; Plant response rating, Corn (corn (Zea mays); 125 g ai/ha): 0; Plant response rating, Corn (corn (Zea mays); 500 g ai/ha): 20; Ragweed plant response rating ([16]; 125 g ai/ha): 60; Ragweed plant response rating ([16]; 500 g ai/ha): 100; Plant response rating, Barnyardgrass ([17]; 125 g ai/ha): 0; Plant response rating, Barnyardgrass ([17]; 500 g ai/ha): 70; Ryegrass, Italian plant response rating ([18]; 125 g ai/ha): 20; Ryegrass, Italian plant response rating ([18]; 500 g ai/ha): 50
3 | C[C@@H](Nc1nc(N)c(C(F)(F)F)c(C(F)(F)F)n1)c1cc2ccccc2s1 [Compound 59] | 0 | 30 | 30 | 80 | 0 | 0 | 0 | 0 | 0 | 60 | 80 | 0 | 0 | 0 | 0 | 20 | 20 | 0 | 0 | 50 | Plant response rating, Kochia (kochia (Kochia scoparia) [10]; 500 g ai/ha): 70; Plant response rating, Ducksalad (0 to 100 scale, 0 is no effect, 100 is complete control) [11]: 0; Plant response rating, Barnyardgrass (0 to 100 scale, 0 is no effect, 100 is complete control) [12]: 0; Kochia plant response rating (kochia (Kochia scoparia) [13]; 125 g ai/ha): 70; Kochia plant response rating (kochia (Kochia scoparia) [13]; 500 g ai/ha): 80; Plant response rating, Sedge, Umbrella (0 to 100 scale, 0 is no effect, 100 is complete control) [14]: 0; Plant response rating, Blackgrass ([15]; 125 g ai/ha): 0; Plant response rating, Blackgrass ([15]; 500 g ai/ha): 0; Plant response rating, Corn (corn (Zea mays); 125 g ai/ha): 0; Plant response rating, Corn (corn (Zea mays); 500 g ai/ha): 0; Ragweed plant response rating ([16]; 125 g ai/ha): 0; Ragweed plant response rating ([16]; 500 g ai/ha): 30; Plant response rating, Barnyardgrass ([17]; 125 g ai/ha): 0; Plant response rating, Barnyardgrass ([17]; 500 g ai/ha): 0; Ryegrass, Italian plant response rating ([18]; 125 g ai/ha): 0; Ryegrass, Italian plant response rating ([18]; 500 g ai/ha): 0
4 | C[C@H](Nc1nc(N)c(C(F)(F)F)c(C(F)(F)F)n1)c1cc2ccccc2s1 [Compound 60] | 0 | 0 | 0 | 0 | 0 | 20 | 50 | 0 | 0 | 50 | 90 | 20 | 60 | 0 | 50 | 30 | 40 | 0 | 0 | 30 | Plant response rating, Kochia (kochia (Kochia scoparia) [10]; 500 g ai/ha): 100; Plant response rating, Ducksalad (0 to 100 scale, 0 is no effect, 100 is complete control) [11]: 0; Plant response rating, Barnyardgrass (0 to 100 scale, 0 is no effect, 100 is complete control) [12]: 0; Kochia plant response rating (kochia (Kochia scoparia) [13]; 125 g ai/ha): 0; Kochia plant response rating (kochia (Kochia scoparia) [13]; 500 g ai/ha): 0; Plant response rating, Sedge, Umbrella (0 to 100 scale, 0 is no effect, 100 is complete control) [14]: 0; Plant response rating, Blackgrass ([15]; 125 g ai/ha): 0; Plant response rating, Blackgrass ([15]; 500 g ai/ha): 20; Plant response rating, Corn (corn (Zea mays); 125 g ai/ha): 0; Plant response rating, Corn (corn (Zea mays); 500 g ai/ha): 0; Ragweed plant response rating ([16]; 125 g ai/ha): 0; Ragweed plant response rating ([16]; 500 g ai/ha): 0; Plant response rating, Barnyardgrass ([17]; 125 g ai/ha): 0; Plant response rating, Barnyardgrass ([17]; 500 g ai/ha): 50; Ryegrass, Italian plant response rating ([18]; 125 g ai/ha): 0; Ryegrass, Italian plant response rating ([18]; 500 g ai/ha): 20
5 | CC[C@@H](Nc1ncc(C(F)(F)F)c(N)n1)c1cc2ccc(F)cc2o1 [Compound 63] | 60 | 100 | 90 | 100 | 0 | 20 | 90 | 0 | 0 | 100 | 100 | 30 | 60 | 70 | 100 | 50 | 90 | 0 | 0 | 80 | Plant response rating, Kochia (kochia (Kochia scoparia) [10]; 500 g ai/ha): 90; Plant response rating, Ducksalad (0 to 100 scale, 0 is no effect, 100 is complete control) [11]: 75; Plant response rating, Barnyardgrass (0 to 100 scale, 0 is no effect, 100 is complete control) [12]: 45; Kochia plant response rating (kochia (Kochia scoparia) [13]; 125 g ai/ha): 80; Kochia plant response rating (kochia (Kochia scoparia) [13]; 500 g ai/ha): 100; Plant response rating, Sedge, Umbrella (0 to 100 scale, 0 is no effect, 100 is complete control) [14]: 80; Plant response rating, Blackgrass ([15]; 125 g ai/ha): 0; Plant response rating, Blackgrass ([15]; 500 g ai/ha): 20; Plant response rating, Corn (corn (Zea mays); 125 g ai/ha): 0; Plant response rating, Corn (corn (Zea mays); 500 g ai/ha): 10; Ragweed plant response rating ([16]; 125 g ai/ha): 50; Ragweed plant response rating ([16]; 500 g ai/ha): 100; Plant response rating, Barnyardgrass ([17]; 125 g ai/ha): 30; Plant response rating, Barnyardgrass ([17]; 500 g ai/ha): 60; Ryegrass, Italian plant response rating ([18]; 125 g ai/ha): 40; Ryegrass, Italian plant response rating ([18]; 500 g ai/ha): 90
